Laboratory results published in US20080206215A1, “APPARATUS AND METHOD FOR TREATMENT OF MICROORGANISMS DURING PROPAGATION, CONDITIONING AND FERMENTATION” (priority 2006, published 2008).

Experiments:
[1] = test system: Weisella confusa; conditions: background statement; cited from earlier work
[2] = test system: fermentation; conditions: background statement; cited from earlier work
[3] = test system: bacteria; experiment: amount of bacteria (CFU/g) in fermenting mash treated with antimicrobial agents; type: cell-based; conditions: FIG. 5
Description: FIG. 5 is a bar graph showing the amount of bacteria present (in CFU/g) in fermenting mash treated with different antimicrobial agents (in ppm) at different times (in hours).
FIG. 5 is a bar graph showing the amount of bacteria present (in CFU/g) in fermenting mash treated with different levels of an antimicrobial agent (in ppm), either ClO2 or antibiotic, at different times (in hours).

[4] = test system: yeast; experiment: ethanol production in fermentation batches treated with ClO2 during fermentation; type: cell-based; conditions: ClO2 dosages of less than about 15 mg/L applied directly to the fermentation mixture; FIG. 2
Description: FIG. 2 is a graph of time (in hours) versus ethanol produced (in grams) for fermentation batches treated with various concentrations of ClO2 during fermentation.
As mentioned above, ClO2 can be added directly into the fermentation mixture. This can be done by adding the ClO2 in conjunction with the yeast and glucoamylase, for example during the SSF stage. FIG. 2 is a graph of time (in hours) versus ethanol produced (in grams) for fermentation batches treated with various concentrations of ClO2 during fermentation.

[5] = test system: glucoamylase
[6] = test system: yeast; experiment: yeast viability in corn mash treated with ClO2 during propagation/conditioning; type: cell-based; conditions: yeast treated with ClO2 during propagation/conditioning phase; FIG. 4
Description: FIG. 4 is a bar graph of viability (% of yeast cells living out of the original number) over time (in hours) in the corn mash treated with 0, 10 and 50 ppm of ClO2.
Chlorine dioxide can also be added during propagation and/or conditioning. For example ClO2 can be added to the yeast slurry before SSF replacing the acid washing step. FIG. 4 is a bar graph of viability (% of yeast cells living out of the original number) over time (in hours) in the corn mash treated with 0, 10 and 500 ppm of ClO2. […] The yeast can tolerate a ClO2 environment and remain viable at high concentrations of ClO2. Competing bacteria, wild yeast, molds, etc. will succumb to the ClO2 leaving only highly viable yeast for fermentation without the additional stress of traditional acid washing. Chlorine dioxide dosages of less than about 50 mg/L may be applied directly to the yeast during propagation.

[7] = test system: yeast; experiment: ethanol production from corn mash treated with ClO2 prior to fermentation; type: cell-based; conditions: ClO2 dosages of between about 10 and about 75 mg/L applied to the mash prior to fermentation; FIG. 3
Description: FIG. 3 is a graph of time (in hours) versus ethanol produced (in grams) for mash treated with various concentrations of ClO2 prior to the fermentation process.
The ClO2 can also be added to the mash prior to the fermentation process, for example before the SSF stage. FIG. 3 is a graph of time (in hours) versus ethanol produced (in grams) for mash treated with various concentrations of ClO2 prior to the fermentation process.

Virginiamycin
concentration required to inhibit growth [1]: over 25 mg/L | concentration that suppresses fermentation [2]: over 2 mg/L

[O][Cl+][O-] [ClO2, Chlorine dioxide]
microbial reduction versus untreated mash ([3]; corn mash treated with ClO2, after 72 hours): greater microbial reduction than untreated mash | microbial reduction versus antibiotic-treated mash ([3]; corn mash treated with greater than 10 ppm of ClO2, after 72 hours): greater microbial reduction than the corn mash treated with antibiotic | ethanol production versus control [4]: greater ethanol production than the control containing no ClO2 | reaction with glucoamylase [5]: does not exhibit a significant reaction with glucoamylase | greater yeast viability than untreated yeast [6]: up to 80% | ethanol production versus control [7]: greater ethanol production than the control containing no ClO2

[O-][Cl+]O [chlorite ion]
concentration that inhibits the glucoamylase enzyme ([5]; 5% maltose solution, FIG. 6): ≥ 14 mg/L
